# Results reported in publication PMC5520047, “Prioritizing multiple therapeutic targets in parallel using automated DNA-encoded library screening” (Nature Communications, 2017).
# Like-named read-outs stand apart in the source and are kept apart here.
# Columns and labels:
# [1] = tested on: A. baumannii BM4652 efflux mutant, pRK415 and pRK415-UppS; assay: microbe, parasite or virus in culture; format: cell-based, Acinetobacter baumannii; conditions: 30 μg/ml polymyxin B nonapeptide; for MIC: Acinetobacter baumannii; for Fold MIC increase: pRK415-UppS overexpressing strain relative to parent strain
# [2] = tested on: E. coli TOP10 ∆TolC, pHN678’ and pHN678’-LolA antisense; assay: MoA study: MIC in lolA antisense expressor; format: cell-based, Escherichia coli; conditions: for MIC: Escherichia coli
# [3] = target: S. aureus methionyl-tRNA synthetase (MRS) (Staphylococcus aureus, UniProt Q5HII6); assay: t-RNA synthetase biochemical assay (MRS); conditions: average of two replicates with s.d.
# [4] = tested on: S. aureus WCUH29 wild type; assay: MIC broth microdilution; format: cell-based, Staphylococcus aureus; conditions: Staphylococcus aureus, WCUH29WILDTYPE; S. aureus WCUH29 wild type; read-out: MIC
# [5] = tested on: S. aureus RN4220 (pYH4) and RN4220 (pYH4-MRS); assay: MoA study: MIC in MRS overexpressor strain; format: cell-based, Staphylococcus aureus; conditions: for MIC: Staphylococcus aureus
# [6] = target: S. aureus isoleucyl-tRNA synthetase (IRS) (Staphylococcus aureus, UniProt P41972); assay: t-RNA synthetase biochemical assay (IRS); conditions: average of two replicates with s.d.
# [7] = tested on: Acinetobacter baumannii BM4652 ΔadeABC ΔadeIJK (efflux mutant); assay: MIC broth microdilution; format: cell-based
# [8] = tested on: Escherichia coli 7623 ΔtolC; assay: MIC broth microdilution; format: cell-based
# [9] = tested on: Klebsiella pneumoniae 1161486a ΔtolC; assay: MIC broth microdilution; format: cell-based
# [10] = tested on: Pseudomonas aeruginosa PA0322 Δ(mexAB-oprM) Δ(mexCD-oprJ) Δ(mexEF-oprN); assay: MIC broth microdilution; format: cell-based
# [11] = tested on: Acinetobacter baumannii ATCC 19606-1 ΔLpxC; assay: MIC broth microdilution; format: cell-based; conditions: ATCC19606
# [12] = tested on: Staphylococcus aureus RN4220; assay: MIC broth microdilution; format: cell-based; conditions: S. aureus RN4220 Gram-positive
# Procedure: 409 remaining NADPH to convert resazurin into the fluorescent resorufin14. The assay buffer containing
# 410 81.4 mM Hepes pH 7.8, 300 mM KCl, 0.4 mg/mL BSA was used to make the enzyme addition containing
# 411 1.2 μg/mL Mtb DHFR and 50 μM NADPH. This was added in equal volume (5 μL) to a substrate solution
# 412 composed of 240 µM DHF in H2O and incubated for 50 min. Developing solution was prepared with
# 413 0.045 mM Resazurin and 0.6 U/ml Diaphorase in 200 mM sodium phosphate buffer pH 7.8 and 5 μL was
# 414 added. The experiments were conducted in black 384-well plates (Greiner Catalog # 784076) and all
# 415 liquid additions were conducted using a Multidrop combi (Thermo Scientific). The plate was read on a
# 416 ViewLux following a 10 minute delay. Resorufin light production was measured using appropriate
# 417 Viewlux filters: Ex: 525 / 20 Pol (BODIPY TMR FP) Em: 598 / 25 (BODIPY TMR) (B04). Assay plates were
# 418 pre-dispensed with 100 nL DMSO or with 100 nL compounds dissolved in neat DMSO using an Echo®
# 419 liquid handler (Labcyte Inc.) where all wells contained compound samples, except wells in columns 6
# 420 and 18 that contained DMSO control. Column 6 represented 100% Mtb DHFR activity in the absence of […]
# 424 were calculated using the n-1 method. […]
# 440 saline). […] Fluorescence was measured (Spectramax M5 […]
# 444 Minimum inhibitory concentrations (MICs) of compounds were determined using broth microdilution […]
# [13] = tested on: A. baumannii BM4652 strains; assay: Potentiation of teicoplanin MIC by LpxA compound 4; format: cell-based, Acinetobacter baumannii
# [14] = tested on: A. baumannii BM4652, BM4652/pRK415, BM4652/pRK415-LpxA; assay: MoA study: MIC and MGIC in LpxA overexpressor; format: cell-based; conditions: Acinetobacter baumannii
# [15] = A. baumannii BM4652 efflux mutant + pRK415-UppS
# [16] = A. baumannii BM4652 efflux mutant + pRK415
# [17] = A. baumannii BM4652 efflux mutant, N/A (no plasmid)
# [18] = E. coli TOP10 ∆TolC + pHN678’-LolA antisense
# Sequence of S. aureus methionyl-tRNA synthetase (MRS) (Q5HII6 whole entry): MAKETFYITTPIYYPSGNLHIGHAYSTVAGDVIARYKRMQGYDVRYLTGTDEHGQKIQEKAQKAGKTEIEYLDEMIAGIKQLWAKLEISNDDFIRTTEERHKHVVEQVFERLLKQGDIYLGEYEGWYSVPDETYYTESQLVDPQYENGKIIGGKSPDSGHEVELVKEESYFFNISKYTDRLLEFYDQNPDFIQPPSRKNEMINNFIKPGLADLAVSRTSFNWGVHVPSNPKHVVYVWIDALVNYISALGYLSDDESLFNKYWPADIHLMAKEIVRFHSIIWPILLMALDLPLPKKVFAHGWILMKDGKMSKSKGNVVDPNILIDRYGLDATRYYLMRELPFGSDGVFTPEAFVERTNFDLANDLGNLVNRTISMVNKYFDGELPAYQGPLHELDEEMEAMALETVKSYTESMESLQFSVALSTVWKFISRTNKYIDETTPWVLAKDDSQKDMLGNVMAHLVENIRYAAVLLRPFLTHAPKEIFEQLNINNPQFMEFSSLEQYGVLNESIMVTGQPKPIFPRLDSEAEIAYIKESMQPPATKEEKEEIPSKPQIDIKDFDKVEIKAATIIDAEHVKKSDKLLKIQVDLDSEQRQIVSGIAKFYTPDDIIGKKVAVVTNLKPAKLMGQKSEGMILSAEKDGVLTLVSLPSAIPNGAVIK
# Sequence of S. aureus isoleucyl-tRNA synthetase (IRS) (P41972 whole entry): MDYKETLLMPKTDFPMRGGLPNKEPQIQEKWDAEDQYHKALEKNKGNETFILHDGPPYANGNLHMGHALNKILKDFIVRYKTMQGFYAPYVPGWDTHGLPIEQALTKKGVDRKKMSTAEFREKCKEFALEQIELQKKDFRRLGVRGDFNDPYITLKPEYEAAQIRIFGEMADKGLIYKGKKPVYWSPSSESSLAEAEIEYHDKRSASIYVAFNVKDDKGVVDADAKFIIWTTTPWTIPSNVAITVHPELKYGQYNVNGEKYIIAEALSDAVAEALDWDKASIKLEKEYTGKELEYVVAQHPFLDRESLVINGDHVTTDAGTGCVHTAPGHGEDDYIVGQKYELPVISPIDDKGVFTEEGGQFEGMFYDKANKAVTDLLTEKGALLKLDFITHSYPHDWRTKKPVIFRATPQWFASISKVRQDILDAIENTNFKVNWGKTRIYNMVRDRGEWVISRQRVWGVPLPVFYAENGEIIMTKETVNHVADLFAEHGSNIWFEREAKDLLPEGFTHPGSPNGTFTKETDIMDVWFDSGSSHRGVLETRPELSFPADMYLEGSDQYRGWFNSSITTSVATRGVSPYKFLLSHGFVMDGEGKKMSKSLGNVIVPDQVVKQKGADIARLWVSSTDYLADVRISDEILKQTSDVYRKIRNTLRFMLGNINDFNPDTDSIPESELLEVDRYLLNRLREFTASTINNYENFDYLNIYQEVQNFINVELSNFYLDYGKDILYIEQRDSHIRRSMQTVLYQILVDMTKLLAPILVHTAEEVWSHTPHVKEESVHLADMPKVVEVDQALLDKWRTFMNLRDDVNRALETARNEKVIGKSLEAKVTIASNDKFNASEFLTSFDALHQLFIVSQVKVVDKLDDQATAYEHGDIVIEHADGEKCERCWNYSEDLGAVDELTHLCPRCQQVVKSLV
structure (smiles),measurement,setting,value
CC[C@H]1OC(=O)[C@H](C)[C@@H](O[C@H]2C[C@@](C)(OC)[C@@H](O)[C@H](C)O2)[C@H](C)[C@@H](O[C@@H]2O[C@H](C)C[C@H](N(C)C)[C@H]2O)[C@](C)(O)C[C@@H](C)CN(C)[C@H](C)[C@@H](O)[C@]1(C)O [Azithromycin],MIC,[1]; [15],0.031 mg/L
same,MIC,[1]; [16],0.031 mg/L
same,MIC,[1]; [17],0.031 mg/L
same,Fold MIC increase,[1],1 fold
same,Fold MIC increase,[1]; listed as azithromycin,unchanged
same,MIC,[2]; E. coli TOP10 ∆TolC + pHN678’,0.0156 mg/L
same,MIC,[2]; [18],0.0039 mg/L
same,Fold MIC decrease,[2]; lolA antisense plasmid compared to vector alone,4 fold
CC(C)(O/N=C(\C(=O)N[C@@H]1C(=O)N2C(C(=O)[O-])=C(C[n+]3ccccc3)CS[C@H]12)c1csc(N)n1)C(=O)O [Ceftazidime],MIC,[1]; [15],0.5 mg/L
same,MIC,[1]; [16],0.5 mg/L
same,MIC,[1]; [17],0.5 mg/L
same,Fold MIC increase,[1],1 fold
same,Fold MIC increase,[1]; listed as ceftazidime,unchanged
O=C(O)c1cn(C2CC2)c2cc(N3CCNCC3)c(F)cc2c1=O [Ciprofloxacin],MIC,[2]; E. coli TOP10 ∆TolC + pHN678’,0.0078 mg/L
same,MIC,[2]; [18],0.0078 mg/L
CNC(=O)c1ccc2c(c1)nc(-c1ccc(Br)c(O)c1)n2C(CNC(=O)COc1ccccc1C(C)(C)C)c1ccc(OC)c(OC)c1 (stereo not drawn) [Compound 1],IC50,[3],0.00083 ± 5e-05 µM
same,MIC,[4],0.5 mg/L
same,MIC increase,[5]; MRS overexpressor induced with 0.1 μg ml^−1 anhydrotetracycline vs vector control strain,> 128 fold
same,MIC increase,[5]; MRS overexpressor uninduced vs vector control strain,8 fold
same,MIC,[5]; S. aureus RN4220 pYH4-MRS (induced with 0.1 µg/ml anhydrotetracycline),64 mg/L
same,MIC,[5]; S. aureus RN4220 pYH4-MRS overexpressor (uninduced),4 mg/L
same,MIC,[5]; S. aureus RN4220 pYH4 vector alone,0.5 mg/L
CNC(=O)c1cccc(CNCc2cc(C(=O)N3CCN(c4cc(Cl)cc(Cl)c4)CC3)cc(C(C)(C)C)c2)c1 [Compound 2],IC50,[6],0.75 ± 0.21 µM
same,MIC,[4],4 mg/L
Cc1cc(C)c(NC(=O)NC(CCC(=O)N2CCN(C)CC2)C(=O)Nc2cccc3c2CCCC3)c(C)c1 (stereo not drawn) [Compound 4],MIC,[7]; A. baumannii BM652 efflux strain,> 64 mg/L
same,MIC,[7]; A. baumannii BM4652 ΔadeABC ΔadeIJK efflux mutant,> 128 mg/L
same,MIC,[8],> 128 mg/L
same,MIC,[9],> 128 mg/L
same,MIC,[10],> 128 mg/L
same,MIC,[11],> 128 mg/L
same,MIC,[12],> 128 mg/L
same,concentration of compound 4 required to completely potentiate teicoplanin,[13]; A. baumannii BM4652,32 µg/mL
same,concentration of compound 4 required to completely potentiate teicoplanin,[13]; A. baumannii BM4652 with LpxA overexpressor clone,> 128 µg/mL
same,MIC,[14]; A. baumannii BM4652 (efflux-),> 128 mg/L
same,MIC,[14]; A. baumannii BM4652/pRK415 (efflux-),> 128 mg/L
same,MIC,[14]; A. baumannii BM4652/pRK415-LpxA (efflux-),> 128 mg/L
same,MIC,"[14]; read-out: MGIC (minimum growth inhibition concentration), A. baumannii BM4652 (efflux-)",8 mg/L
same,MIC,"[14]; read-out: MGIC (minimum growth inhibition concentration), A. baumannii BM4652/pRK415 (efflux-)",8 mg/L
same,MIC,"[14]; read-out: MGIC (minimum growth inhibition concentration), A. baumannii BM4652/pRK415-LpxA (efflux-)",> 128 mg/L
